Results: US20100035882A1, “INHIBITION OF PDE2A” (priority 2006, published 2010)
Several values for one entry are separate records, joined by “and”; a condition that tells them apart may be missing. Identical values can stand only once. Entries after “also recorded” stand apart in the source; their conditions may differ.

Columns and labels:
[1] = test system: mice (C57b1/6 strain), isoprenaline-induced cardiac hypertrophy; test: Mouse isoprenaline hypertrophy model, heart weight/body weight ratio; assay type: in vivo; conditions: for Effect on heart weight:body weight ratio (HW:BW) (in words): with isoprenaline 2 mg/kg/d s.c.
Procedure: (§1) In order to verify that incubation of H9c2 cells with the PDE2A inhibitor BAY 60-7550 also leads to an increase in the intracellular cGMP level and thus has an antihypertrophic effect, the intracellular cGMP content was determined by EIA after stimulation of cGMP synthesis by ANP in the presence of the PDE2A inhibitor BAY 60-7550. […] To verify the in vitro findings, the antihypertrophic effect of the PDE2 inhibitor BAY 60-7550 was investigated in vivo in a mouse hypertrophy model. For this purpose, mice of the C57BL6 strain received subcutaneous administration of 2 mg/kg isoprenaline once a day and, as positive control, 10 mg/kg enalapril administered via the drinking water in addition to the isoprenaline.
FIG. 4: Alteration in the heart weight compared with the body weight (HW:BW) by subcutaneous administration of isoprenaline (2 mg/kg/d) and the influence of enalapril as positive control […] in the drinking water) and of the PDE2A inhibitor BAY 60-7550. The heart weight:body weight ratio as a function of the treatment is shown.
Assay of PDE2A inhibitors for anti-hypertrophic effect in vivo:
The antihypertrophic effect of the PDE2A inhibitor BAY 60-7550 is assayed by using the so-called mouse isoprenaline model [ ]. This involves 8 mice (C57b1/6 strain) per dose group receiving subcutaneous administration of isoprenaline at a dose of 2 mg/kg/d for 5 days, while the control group receives a saline solution as vehicle control. As positive control, in addition to the isoprenaline, the ACE inhibitor enalapril was administered in a dose of 10 mg/kg/d via the drinking water to one group, while two further groups received in addition to the isoprenaline the PDE2A inhibitor BAY 60-7550 administered intraperitoneally with a dose of 10 mg/kg/d. As a measure of the degree of cardiac hypertrophy, the heart weight/body weight (HW:BW) ratio is determined after 5 d, and the relation of the effect of the substances to the effect of isoprenaline is found.

[2] = test system: hypertrophy marker MYHCB in H9C2 rat cells; test: Relative expression of hypertrophy marker MYHCB in H9C2 rat cells after vasopressin ± BAY 60-7550 (real-time PCR); assay type: cell-based
Procedure: FIG. 2: Relative expression of the hypertrophy marker MYHCB in H9C2 rat cells after stimulation by vasopressin±PDE2A inhibitor BAY 60-7550.
The expression of ANP and MYHCB relative to L32 ribosomal protein in H9C2 cells after incubation with vasopressin (0.1 micromol, 1 micromal, 10 micromol) for 72 h is shown. […] (Mean relative expression rE from a duplicate determination).
(§2) The relative expression of PDE2A in H9c2 rat cells is measured by quantifying the mRNA using the real-time polymerase chain reaction. Compared with conventional PCR, the real-time PCR has the advantage of more accurate quantification by introducing an additional, fluorescence-labeled oligonucleotide. This so-called probe contains at the 5′ end the fluorescent dye FAM (6-carboy-fluorescein) and at the 3′ end the fluorescence quencher TAMRA (6-carboxy-tetramethylrhodamine). During the polymerase chain reaction, the fluorescent dye FAM is cleaved off the probe by the 5′-exonuclease activity of the Taq polymerase in the TaqMan PCR, and thus the previously quenched fluorescence signal is obtained. The number of the cycle at which the fluorescence intensity is about 10 standard deviations above the background fluorescence is recorded as the so-called threshold [treshold cyle (Ct value)].
Total RNA is isolated from the H9c2 rat cardiomyocytes from a 6-well (about 4×10^5 cells) using an RNeasy Kit (Qiagen Hilden). 1 μg portions of total RNA per tissue are reacted with 1 unit of DNase I (from Invitrogen) at room temperature for 15 min to remove contamination by genomic DNA. The Dnase I is inactivated by adding 1 μl of EDTA (25 mM) and subsequent heating at 65° C. (10 min).
Subsequently, cDNA synthesis is carried out in the same reaction mixture in accordance with the instruction for the “SUPERSCRIPT-II RT cDNA synthesis kit” (from Invitrogen), and the reaction volume is made up to 200 μl with distilled water. For the PCR, 7.5 μl of primer and probe mixture and 12.5 μl of TaqMan reaction solution (qPCR Mastermix, from Eurogentec) are added to 5 μl portions of the diluted cDNA solution. The final concentration of the primers is 300 nM in each case, and that of the probe is 150 nM. The sequence of the forward and reverse primer for the rat PDE2A is: 5′-[…]-3′ (SEQ ID NO: 3) and 5′-[…]-3′ (SEQ ID NO: 4), and the sequence of the fluorescent probe is 5′-6FAM-[…]-TAMRA-3′ (SEQ ID NO: 5). The sequence of the forward and reverse primer for r-MYHCB is: 5′-[…]-3′ (SEQ ID NO: 6) and 5′-[…]-3′ (SEQ ID NO: 7), and the sequence of the fluorescent probe is 5′-6FAM-[…]-TAMRA-3′ (SEQ ID NO: 8).
The PCR takes place on an ABI Prism SDS-7700 apparatus (from Applied Biosystems) in accordance with the manufacturer's instructions. 40 cycles are carried out in this case. The Ct (see above) which is obtained for the respective gene in the relevant cDNA corresponds to the cycle in which the fluorescence intensity of the liberated probe is about 10 standard deviations above the background signal. A lower Ct value thus means an earlier start of amplification, i.e. the original sample contains more mRNA. To compensate for any variations in the cDNA synthesis, the expression of a so-called “housekeeping gene”, which should always be expressed to the same extent irrespective of the treatment of the cells, is also analyzed in all the investigated samples. L32 ribosomal protein is used to standardize PDE2A expression in H9c2 cells. The sequence of the forward and reverse primer for rat L32 is 5′-[…]-3′ (SEQ ID NO: 9), and 5′-[…]-3′ (SEQ ID NO: 10), and the sequence of the probe is 5′-6FAM-[…]-TAMRA-3′ (SEQ ID NO: 11). The data are analyzed in the following way: the dCt value is calculated for each RNA. The dCt value is the difference between the Ct values for the candidate gene (i.e.: MYHCB or PDE2A) and the Ct value of the housekeeping gene in the respective tissue. […]

[3] = test system: PDE2A-mRNA in H9c2 rat cardiomyocytes; test: Relative expression of PDE2A-RNA in H9c2 cells after arginine-vasopressin (real-time PCR); assay type: cell-based; conditions: Vasopressin 1 μM, 72 h, triplicate mean, control 159.73
Text: For this purpose, the rat cardiomyocyte cell line H9c2 (ATCC number: CRL-1446) was exposed to a hypertrophic stimulus by arginine-vasopressin which is expressed inter alia in an increased expressed of marker genes for cardiac hypertrophy such as ANP (atrial natriuretic peptide) and MYHCB (myosin heavy chain beta-subunit). An increased expression of the cGMP-hydrolyzing PDE2A is able to reduce the intracellular cGMP level of the cardiomyocytes and thus suppress the antihypertrophic effect of cGMP [3,4]. […]
as §2, with “value)]. […]” for “value)].”

[4] = test system: intracellular cGMP in H9c2 rat cardiomyocytes; test: Intracellular cGMP content in H9c2 cells after ANP stimulation (EIA); assay type: cell-based; conditions: 15 min, FIG. 3
Procedure: as §1
FIG. 3: Change in the intracellular cGMP concentration in H9c2 rat cardiomyocytes after stimulation with ANP in the presence of various concentrations of the PDE2A inhibitor BAY 60-7550. The cGMP content in the cells after incubation with ANP and the stated dosages of the PDE2A inhibitor BAY 60-7550 for 15 min is shown.
Determination of the cGMP Content in H9c2 Cells after Preincubation with the PDE2A Inhibitor BAY 60-7550
The intracellular cGMP content in H9c2 cells was determined with the Biotrak (EIA) Immunoassay from Amersham (catalog No. RPN 226) in accordance with the manufacturer's protocol. […] The fluorescence is measured at 450/570 nm in a Tecan Spectrafluor photometer. […]

CCOC(=O)[C@H](CCc1ccccc1)N[C@@H](C)C(=O)N1CCC[C@H]1C(=O)O [enalapril, reference compound]
Effect on heart weight:body weight ratio (HW:BW) (in words) ([1]; enalapril 10 mg/kg via drinking water, positive control): marked reduction in the ratio of the weight of the heart to the body weight

CC(C)NCC(O)c1ccc(O)c(O)c1 (stereo not shown) [isoprenaline, reference compound]
Effect on heart weight in relation to body weight (in words) ([1]; isoprenaline 2 mg/kg/d s.c. alone, hypertrophic stimulus): increases the weight of the animal's heart in relation to the body weight

NC(=O)CC[C@@H]1NC(=O)[C@H](Cc2ccccc2)NC(=O)[C@H](Cc2ccc(O)cc2)NC(=O)[C@@H](N)CSSC[C@@H](C(=O)N2CCC[C@H]2C(=O)N[C@@H](CCCN=C(N)N)C(=O)NCC(N)=O)NC(=O)[C@H](CC(N)=O)NC1=O [Vasopressin, arginine-vasopressin, reference compound]
rE (expression of MYHCB relative to L32) ([2]; Vasopressin 1 μM alone, 72 h, H9C2 cells): 19.43 and 15.03 | MW (mean rE of MYHCB) ([2]; Vasopressin 1 μM alone, 72 h, duplicate mean, control 0.50): 17.23 | MW (mean rE of PDE2A) [3]: 613.64

COc1ccc(Cc2nn3c(C(CCCc4ccccc4)C(C)O)nc(C)c3c(=O)[nH]2)cc1OC (stereo not shown) [BAY 60-7550, 2-(3,4-dimethoxybenzyl)-7-[1-(1-hydroxyethyl)-4-phenylbutyl]-5-methylimidazo[5,1-f][1,2,4]triazin-4(3H)-one]
Effect on intracellular cGMP content (in words) [4]: dose-dependently and synergistically increases the intracellular cGMP level; also recorded: dose-dependently increases the intracellular cGMP content | Effect on heart weight:body weight ratio (HW:BW) (in words) ([1]; BAY 60-7550 10 mg/kg i.p., 5 days, two groups, FIG. 4): able to suppress the isoprenaline-induced increase in heart weight almost as well as the positive control enalapril; also recorded: marked reduction in the ratio of the weight of the heart to the body weight | Effect on vasopressin-induced increase of hypertrophy marker gene MYHCB (in words) ([2]; H9c2 cells, vasopressin stimulation, FIG. 2): dose-dependently suppresses the induction of the hypertrophy marker MYHCB by vasopressin; also recorded: dose-dependent suppression of the increase in the hypertrophy marker gene MYHCB | rE (expression of MYHCB relative to L32) ([2]; Vasopressin 1 μM + 0.1 μM BAY 60-7550, 72 h): 9.00 and 15.89 | MW (mean rE of MYHCB) ([2]; Vasopressin 1 μM + 0.1 μM BAY 60-7550, duplicate mean, vasopressin alone 17.23): 12.44 | MW (mean rE of MYHCB) ([2]; Vasopressin 1 μM + 1 μM BAY 60-7550, duplicate mean, vasopressin alone 17.23): 8.54 | rE (expression of MYHCB relative to L32) ([2]; Vasopressin 1 μM + 10 μM BAY 60-7550, 72 h): 4.56 and 3.01 | MW (mean rE of MYHCB) ([2]; Vasopressin 1 μM + 10 μM BAY 60-7550, duplicate mean, vasopressin alone 17.23): 3.79
